Assays:
[1] = target: Isocitrate dehydrogenase [NADP] cytoplasmic (Homo sapiens, UniProt O75874); assay: Inhibition of His-tagged wild type IDH1 (unknown origin)/FLAG-tagged IDH1 R132H mutant heterodimer expressed in Sf9 cells pre-incubated for 1 hr before addition of alpha-KG followed by diaphorase and resazurin addition and measured after 5 mins in presence of NADPH and 30 uM NADP ny fluorescence spectrometry
[2] = target: Isocitrate dehydrogenase [NADP] cytoplasmic (Homo sapiens, UniProt O75874, R132C); assay: Inhibition of DH1 R132C mutant homodimer (unknown origin) expressed in Sf9 cells pre-incubated for 1 hr before addition of alpha-KG followed by 90 mins incubation in presence of NADPH, NADP, diaphorase and resazurin by fluorescence spectrometry
Chain of Isocitrate dehydrogenase [NADP] cytoplasmic (Homo sapiens, UniProt O75874, R132C) (O75874 2-414 R132C limits assumed): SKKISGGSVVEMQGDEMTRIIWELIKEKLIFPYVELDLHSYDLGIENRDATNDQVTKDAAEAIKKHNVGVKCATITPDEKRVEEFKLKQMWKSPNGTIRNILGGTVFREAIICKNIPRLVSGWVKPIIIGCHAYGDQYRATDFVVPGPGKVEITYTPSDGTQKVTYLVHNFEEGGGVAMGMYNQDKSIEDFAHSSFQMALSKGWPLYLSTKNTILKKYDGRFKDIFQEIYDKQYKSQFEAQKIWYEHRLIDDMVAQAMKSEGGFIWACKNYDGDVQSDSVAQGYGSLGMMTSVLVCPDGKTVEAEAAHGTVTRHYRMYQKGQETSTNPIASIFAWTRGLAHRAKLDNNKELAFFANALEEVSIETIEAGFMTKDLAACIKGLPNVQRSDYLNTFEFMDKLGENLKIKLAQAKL

[3] = target: Isocitrate dehydrogenase [NADP] cytoplasmic (Homo sapiens, UniProt O75874, R132H); assay: Inhibition of DH1 R132H mutant homodimer (unknown origin) expressed in Sf9 cells pre-incubated for 1 hr before addition of alpha-KG followed by 90 mins incubation in presence of NADPH, NADP, diaphorase and resazurin by fluorescence spectrometry
Chain of Isocitrate dehydrogenase [NADP] cytoplasmic (Homo sapiens, UniProt O75874, R132H) (O75874 2-414 R132H limits assumed): as the sequence (O75874 2-414 R132C limits assumed) above, with C131H counted along it

Chain of Isocitrate dehydrogenase [NADP] cytoplasmic (Homo sapiens, UniProt O75874) (O75874 2-414 limits assumed): as the sequence (O75874 2-414 R132C limits assumed) above, with C131R counted along it

Row | IC50 [2] | SMILES | also measured
1 | Not Active | C[C@@H](Nc1nc(NCC(N)=O)nc(-c2cccc(C(F)(F)F)n2)n1)C1CC1 | 
2 | Not Active | C[C@@H](Nc1nc(N[C@H](C)C2CC2)nc(-c2cccc(C(F)(F)F)n2)n1)C(=O)O | 
3 | Not Active | C[C@@H](Nc1nc(N[C@H](C)C2CC2)nc(-c2cccc(C(F)(F)F)n2)n1)C(=O)N(C)C | 

Second part, the compound before the results:

Row | SMILES | IC50 [2] | also measured
4 | C[C@@H](Nc1nc(N[C@H](C)C2CC2)nc(-c2ccc(Cl)cc2)n1)C1CC1 |  | IC50 [1]: Not Active
5 | COc1ccc(F)c(-c2nc(N[C@H](C)C3CC3)nc(N[C@H](C)C3CC3)n2)c1 |  | IC50 [3]: Not Active
